Measured values as given in US8741928B2, “Protected antimicrobial compounds for high temperature applications” (Dow Global Technologies LLC, priority 2010, dated 2014).

Legend:
[1] = Analysis of glutaraldehyde release after heat-aging; assay type: physicochemical; settings: sterile deionized water, molar equivalent of 2000 ppm glutaraldehyde, initial and after heat-aging at 55° C. for 2 h or 24 h; for Glutaraldehyde concentration after pre-column derivatization by HPLC: acidic derivatization
Experimental: Samples of the AMPD-adduct and TA-adduct are analyzed for glutaraldehyde content. Samples are prepared in sterile deionized water at the molar equivalent of 2000 ppm glutaraldehyde. A standard of 500 ppm glutaraldehyde is also prepared. An initial measurement is taken just after sample preparation. Samples are then heat-aged at 55° C. for 2 h or 24 h and analyzed again. Glutaraldehyde concentration is measured directly via GC and after pre-column derivatization by HPLC.

[2] = system: T. thermophilus; assay: Biocidal efficacy against thermophilic bacteria at 70° C.; assay type: cell-based; settings: for Kill of bacteria maintained over 21 days: equivalent to 50 ppm glutaraldehyde, 4 hr exposure between challenge and enumeration, weekly challenges over 21 days
Experimental: b. Thermophilic Bacteria. A 48-72 hour old culture of T. thermophilus is pelleted by centrifuging at 2000 g and the pellet resuspended in 10 times the culture volume of buffer (PBS or carbonate-buffered synthetic freshwater). The suspension is distributed into 10 mL aliquots in glass screw-cap tubes. Each tube is then treated with glutaraldehyde or an adduct and incubated at 70° C. At indicated timepoints, cell density in each tube is measured via dilution to extinction by serially diluting a sample and plating dilutions on solid media.

In the case of `CC12COC3CCCC(OC1)N32` (centres unmarked) [AMPD-adduct, 2a-methyloctahydro-1,4-dioxa-2a1-azacyclopenta[cd]indene], the “Glutaraldehyde concentration measured directly via GC” value [1] is reported as “No glutaraldehyde is detected”, the “Glutaraldehyde concentration after pre-column derivatization by HPLC” value [1] is reported as “low levels of glutaraldehyde” and the “Kill of bacteria maintained over 21 days” value [2] is reported as 4 log.
For `OCC12COC3CCCC(OC1)N32` (centres unmarked) [TA-adduct, (octahydro-1,4-dioxa-2a^1-azacyclopenta[cd]inden-2a-yl)methanol], the “Glutaraldehyde concentration measured directly via GC” value [1] was “No glutaraldehyde is detected”, the “Glutaraldehyde concentration after pre-column derivatization by HPLC” value [1] was “low levels of glutaraldehyde” and the “Kill of bacteria maintained over 21 days” value [2] was 4 log.
In the case of `O=CCCCC=O` [glutaraldehyde, reference compound], the “Control of bacterial levels after 5 days” value ([2]; equivalent of 100 ppm glutaraldehyde, after 5 days) is reported as “fails to control bacterial levels” and the “Kill of bacteria maintained over 21 days” value [2] is reported as 4 log.
